Assay [1] concerns G-INT gastric cancer cell lines. Put plainly: In vitro cell proliferation assay (MTS), G-INT cell lines. The class given is cell-based, human. Conditions: for In vitro sensitivity of G-INT versus G-DIF cell lines: 28 cell lines (11 G-INT and 17 G-DIF) treated with increasing concentrations; for GI50: mean of 11 G-INT cell lines, drug concentration at which 50% growth inhibition is achieved, read-out: Mean GI-50 concentration. How it is done:
(§1) Cell proliferation assays were performed using a tetrazolium compound-based colorimetric method. Adherent or semi-adherent cell lines with doubling times less than 48 hours were used in this analysis. The cell lines for which cell proliferation assays were performed are: YCC19, YCC18, TMK1, YCC2, CLS145, YCC9, YCC6, NUGC3, HGC-27, Fu97, Ist1, YCC7, YCC16, Hs746T, MKN45, KatoIII, AGS, SNU719, AZ521, YCC1, MKN1, YCC11, IM95, MKN7, YCC3, YCC10, SCH and N87. Cell proliferation assays were performed using a tetrazolium compound-based colorimetric method (MTS kit, Promega, Madison, Wis., USA) according to the manufacturer's instructions and measured using an EnVision 2104 multilabel plate reader (Perkin Elmer, Finland) at 490 nm. Inhibition of cell growth by drugs was also visually confirmed under microscopy. Drugs used include cisplatin (Sigma, 479306-1G), oxaliplatin (Sigma, O9512), 5-Fluorouracil (Sigma, F6627-1G).
(§2) Of the 37 cell lines, 28 cell lines (11 G-INT and 17 G-DIF) had growth characteristics suitable for in vitro drug sensitivity testing. 5-FU, oxaliplatin and cisplatin are drugs presently employed in the adjuvant and 1st line palliative treatment of GC. The 28 cell lines were treated with increasing concentrations of these drugs.

Assay [2] relates to G-DIF gastric cancer cell lines. Put plainly: In vitro cell proliferation assay (MTS), G-DIF cell lines. The class given is cell-based, human. To be noted: mean of 17 G-DIF cell lines, drug concentration at which 50% growth inhibition is achieved, read-out: Mean GI-50 concentration. How it is done:
as §1, §2

The next assay has as its system GC subsets. Conditions: INT-0116, ten-year update subgroup analysis; cited from earlier work.

The values below come from US20130064901A1, “GENE EXPRESSION PROFILING FOR CLASSIFYING AND TREATING GASTRIC CANCER” (Agency for Science, Technology and Research, priority 2011, published 2013).

Entries after “also recorded” stand apart in the source; their conditions may differ. Where two headings read alike, the source gives them in different places.

As for `O=c1[nH]cc(F)c(=O)[nH]1` [5-FU, 5-Fluorouracil], the “In vitro sensitivity of G-INT versus G-DIF cell lines” value in assay [1] was “G-INT cell lines were significantly more sensitive”. Moreover, the GI50 in assay [1] (Homo sapiens) came to 5.2 µM; in assay [2] (Homo sapiens) it was 23.2 µM. For the same compound, in the assay on GC subsets, the “Benefit from 5-FU therapy by GC subset” value was “all GC subsets benefited from 5-FU therapy except for cases with diffuse histology”.
With `N.N.[Cl][Pt][Cl]` [cisplatin], the “In vitro sensitivity of G-INT versus G-DIF cell lines” value in assay [1] is “G-DIF cell lines were more sensitive; also recorded: more resistant”. For the same compound, the GI50 was found to be 38.6 µM in assay [1] and 13.3 µM in assay [2].
Regarding `O=C1[O][Pt]2([NH][C@@H]3CCCC[C@H]3[NH]2)[O]C1=O` [oxaliplatin], the “In vitro sensitivity of G-INT versus G-DIF cell lines” value in assay [1] is “G-INT cell lines were significantly more sensitive”. In addition, the figures for the GI50 in assay [1] and in assay [2] were 1.33 µM and 5.49 µM, respectively.
